This is an account of results in paper PMC4620497 (Scientific Reports, 2015).

One experiment concerns Jurkat. The experiment in a line: MTT cell viability assay. The conditions noted are these: Homo sapiens, 72 h. A general note: Tetrazolium assays rely on reduction of a dye to a coloured formazan, in cell work by metabolically active cells.
The test system of experiment [1] is Wnt/β-catenin signaling in STF3a cells. The experiment in a line: STF3a SuperTopFlash luciferase reporter assay. Type of experiment: cell-based. The note with it: 24 h. The procedure: The cell line STF3a, which stably expresses both the STF (SuperTopFlash) luciferase reporter promoter and the wnt3a gene was used to determine whether SKLB-677 can block the Wnt/β-catenin signaling. […]. […] Here we can conclude that the SKLB-677-mediated blockade of Wnt/β-catenin signaling is not due to FLT3 inhibition. We then examined whether the first-generation FLT3 inhibitors could inhibit Wnt/β-catenin signaling. […].
STF3a cells (8 × 10^3) were seeded overnight in 96-well plates (triplicate wells per treatment). Cells were treated with 0.1% DMSO or tested compounds for 24 h with Luciferase assay system (Promega) performed according to the manufacturer’s instructions. […] The reporter activity was expressed as relative values compared with vehicle control.
Figure 3 Effects of SKLB-677 on Wnt/β-catenin signaling. […]. All data points are means of triplicates ± SD. ns, not statistically significant, **P < 0.01, ***P < 0.005 among groups. […]. (c) STF3a cells were incubated with various concentrations of SKLB-677 for 24 h.The cell lysates were detected using the antibodies against S33/37/T41 Non-phospho β-catenin (active β-catenin), and total β-catenin (β-catenin). (d) STF3a cells were treated with indicated concentrations of SKLB-677 for 24 h. MYC, CCND1, and NKD1 mRNA expressions were determined through real-time qPCR analysis. All samples were normalized to the level of GAPDH (mean ± SEM from triplicate reactions). *P < 0.05, **P < 0.01, ***P < 0.005. (e) Representative images of zebrafish embryos at 24hpf with tail formation after incubation with various concentrations of SKLB-677 for 20 h. (f) Zebrafish embryos were injected with wnt8.1 mRNA (30 pg) or vehicle mRNA (phaenotype control). […]. Results shown in the histogram are expressed as the percentage of embryos in each phenotypic class after the treatment (n > 70). Class 1: wild-type, class 2: posteriorized, resulting in the loss of the eyes, and class 3: more severely posteriorized, as evidenced by head truncation.
A general note: Reporter assays use an easily measured gene product as a stand-in for the process of interest.

For the next experiment, the system named is Karpas-299. The experiment in a line: MTT cell viability assay. The conditions noted are these: Homo sapiens, KARPAS-299, 72 h.
The test system of a further experiment is HeLa. Description: MTT cell viability assay. The note with it: Homo sapiens, 72 h.
In the next experiment the test system is MCF-7. The experiment in a line: MTT cell viability assay. The conditions noted are these: Homo sapiens, MCF7, 72 h.
The subject of the next experiment is BEL7402. The experiment in a line: MTT cell viability assay. The conditions noted are these: Homo sapiens, Bel-7402, 72 h.
The next experiment deals with MV4-11. Description: MTT cell viability assay. The conditions noted are these: Homo sapiens, MV4-11, 72 h.
Another experiment concerns Raji. Description: MTT cell viability assay. The note with it: Homo sapiens, 72 h.
For the next experiment, the system named is SMMC7721. Description: MTT cell viability assay. The note with it: Homo sapiens, SMMC-7721, 72 h.
The test system of the next experiment is U266. The experiment in a line: MTT cell viability assay. The conditions noted are these: Homo sapiens, U-266, 72 h.
A further experiment relates to A549. Description: MTT cell viability assay. The conditions noted are these: Homo sapiens, A549, 72 h.
For a further experiment, the system named is HL-60. Description: MTT cell viability assay. The note with it: Homo sapiens, HL-60, 72 h.
For a further experiment, the target named is T1, CDC2L1 (Homo sapiens, UniProt P21127).
T1 construct: purchased DiscoveRx KINOMEscan (Ambit Biosciences)
The experiment in a line: KINOMEscan panel screen. In kind it is binding. The note with it: read-out: Percent Control(%).

For another experiment, the system named is H358. The experiment in a line: MTT cell viability assay. The conditions noted are these: Homo sapiens, NCI-H358, 72 h.
In another experiment the target is T2, MAP3K15 (Homo sapiens, UniProt Q6ZN16).
T2 construct: purchased DiscoveRx KINOMEscan (Ambit Biosciences)
The experiment in a line: KINOMEscan panel screen. Type of experiment: binding. The conditions noted are these: read-out: Percent Control(%).

For the next experiment, the target named is T3, SRMS (Homo sapiens, UniProt Q9H3Y6).
T3 construct: purchased DiscoveRx KINOMEscan (Ambit Biosciences)
The experiment in a line: KINOMEscan panel screen. In kind it is binding. The conditions noted are these: read-out: Percent Control(%).

The next experiment concerns the target T4, HIPK2 (Homo sapiens, UniProt Q9H2X6).
T4 construct: purchased DiscoveRx KINOMEscan (Ambit Biosciences)
Description: KINOMEscan panel screen. In kind it is binding. The note with it: read-out: Percent Control(%).

The target of a further experiment is T5, EIF2AK1 (Homo sapiens, UniProt Q9BQI3).
T5 construct: purchased DiscoveRx KINOMEscan (Ambit Biosciences)
The experiment in a line: KINOMEscan panel screen. In kind it is binding. The note with it: read-out: Percent Control(%).

A further experiment deals with T6, NEK11 (Homo sapiens, UniProt Q8NG66).
T6 construct: purchased DiscoveRx KINOMEscan (Ambit Biosciences)
Description: KINOMEscan panel screen. In kind it is binding. The conditions noted are these: read-out: Percent Control(%).

Another experiment has as its target T7, STK36 (Homo sapiens, UniProt Q9NRP7).
T7 construct: purchased DiscoveRx KINOMEscan (Ambit Biosciences)
Description: KINOMEscan panel screen. Type of experiment: binding. The note with it: read-out: Percent Control(%).

In a further experiment the target is T8, MINK (Homo sapiens, UniProt Q8N4C8).
T8 construct: purchased DiscoveRx KINOMEscan (Ambit Biosciences)
Description: KINOMEscan panel screen. The conditions noted are these: read-out: Percent Control(%). Type of experiment: binding.

For a further experiment, the target named is T9, PRKG2 (Homo sapiens, UniProt Q13237).
T9 construct: purchased DiscoveRx KINOMEscan (Ambit Biosciences)
Description: KINOMEscan panel screen. The conditions noted are these: read-out: Percent Control(%). Type of experiment: binding.

For the next experiment, the target named is T10, PKNB(M.tuberculosis) (Mycobacterium tuberculosis, UniProt P9WI81).
T10 construct: purchased DiscoveRx KINOMEscan (Ambit Biosciences)
The experiment in a line: KINOMEscan panel screen. Type of experiment: binding. The note with it: read-out: Percent Control(%).

The target of a further experiment is T11, CHEK2 (Homo sapiens, UniProt O96017).
T11 construct: purchased DiscoveRx KINOMEscan (Ambit Biosciences)
Description: KINOMEscan panel screen. The note with it: read-out: Percent Control(%). Type of experiment: binding.

The target in another experiment is FLT3-D835H (Homo sapiens, UniProt P36888, D835H). The experiment in a line: KINOMEscan kinase binding assay (Kd). The arrangement: purchased Ambit Biosciences (KINOMEscan).
In another experiment the target is T12, MAST1 (Homo sapiens, UniProt Q9Y2H9).
T12 construct: purchased DiscoveRx KINOMEscan (Ambit Biosciences)
The experiment in a line: KINOMEscan panel screen. Type of experiment: binding. The conditions noted are these: read-out: Percent Control(%).

Another experiment deals with T13, MAP4K2 (Homo sapiens, UniProt Q12851).
T13 construct: purchased DiscoveRx KINOMEscan (Ambit Biosciences)
Description: KINOMEscan panel screen. In kind it is binding. The note with it: read-out: Percent Control(%).

Another experiment concerns the target T14, PIP5K2B (Homo sapiens, UniProt P78356).
T14 construct: purchased DiscoveRx KINOMEscan (Ambit Biosciences)
Description: KINOMEscan panel screen. The conditions noted are these: read-out: Percent Control(%). In kind it is binding.

The target in a further experiment is T15, EPHB2 (Homo sapiens, UniProt P29323).
T15 construct: purchased DiscoveRx KINOMEscan (Ambit Biosciences)
The experiment in a line: KINOMEscan panel screen. The note with it: read-out: Percent Control(%). In kind it is binding.

A further experiment has as its target T16, PIK3CG (Homo sapiens, UniProt P48736).
T16 construct: purchased DiscoveRx KINOMEscan (Ambit Biosciences)
Description: KINOMEscan panel screen. The note with it: read-out: Percent Control(%). Type of experiment: binding.

For a further experiment, the target named is T17, CLK4 (Homo sapiens, UniProt Q9HAZ1).
T17 construct: purchased DiscoveRx KINOMEscan (Ambit Biosciences)
The experiment in a line: KINOMEscan panel screen. Type of experiment: binding. The conditions noted are these: read-out: Percent Control(%).

Structures are written as SMILES. Like-named read-outs stand apart in the source and are kept apart here.

T12 sequence (Q9Y2H9 whole entry): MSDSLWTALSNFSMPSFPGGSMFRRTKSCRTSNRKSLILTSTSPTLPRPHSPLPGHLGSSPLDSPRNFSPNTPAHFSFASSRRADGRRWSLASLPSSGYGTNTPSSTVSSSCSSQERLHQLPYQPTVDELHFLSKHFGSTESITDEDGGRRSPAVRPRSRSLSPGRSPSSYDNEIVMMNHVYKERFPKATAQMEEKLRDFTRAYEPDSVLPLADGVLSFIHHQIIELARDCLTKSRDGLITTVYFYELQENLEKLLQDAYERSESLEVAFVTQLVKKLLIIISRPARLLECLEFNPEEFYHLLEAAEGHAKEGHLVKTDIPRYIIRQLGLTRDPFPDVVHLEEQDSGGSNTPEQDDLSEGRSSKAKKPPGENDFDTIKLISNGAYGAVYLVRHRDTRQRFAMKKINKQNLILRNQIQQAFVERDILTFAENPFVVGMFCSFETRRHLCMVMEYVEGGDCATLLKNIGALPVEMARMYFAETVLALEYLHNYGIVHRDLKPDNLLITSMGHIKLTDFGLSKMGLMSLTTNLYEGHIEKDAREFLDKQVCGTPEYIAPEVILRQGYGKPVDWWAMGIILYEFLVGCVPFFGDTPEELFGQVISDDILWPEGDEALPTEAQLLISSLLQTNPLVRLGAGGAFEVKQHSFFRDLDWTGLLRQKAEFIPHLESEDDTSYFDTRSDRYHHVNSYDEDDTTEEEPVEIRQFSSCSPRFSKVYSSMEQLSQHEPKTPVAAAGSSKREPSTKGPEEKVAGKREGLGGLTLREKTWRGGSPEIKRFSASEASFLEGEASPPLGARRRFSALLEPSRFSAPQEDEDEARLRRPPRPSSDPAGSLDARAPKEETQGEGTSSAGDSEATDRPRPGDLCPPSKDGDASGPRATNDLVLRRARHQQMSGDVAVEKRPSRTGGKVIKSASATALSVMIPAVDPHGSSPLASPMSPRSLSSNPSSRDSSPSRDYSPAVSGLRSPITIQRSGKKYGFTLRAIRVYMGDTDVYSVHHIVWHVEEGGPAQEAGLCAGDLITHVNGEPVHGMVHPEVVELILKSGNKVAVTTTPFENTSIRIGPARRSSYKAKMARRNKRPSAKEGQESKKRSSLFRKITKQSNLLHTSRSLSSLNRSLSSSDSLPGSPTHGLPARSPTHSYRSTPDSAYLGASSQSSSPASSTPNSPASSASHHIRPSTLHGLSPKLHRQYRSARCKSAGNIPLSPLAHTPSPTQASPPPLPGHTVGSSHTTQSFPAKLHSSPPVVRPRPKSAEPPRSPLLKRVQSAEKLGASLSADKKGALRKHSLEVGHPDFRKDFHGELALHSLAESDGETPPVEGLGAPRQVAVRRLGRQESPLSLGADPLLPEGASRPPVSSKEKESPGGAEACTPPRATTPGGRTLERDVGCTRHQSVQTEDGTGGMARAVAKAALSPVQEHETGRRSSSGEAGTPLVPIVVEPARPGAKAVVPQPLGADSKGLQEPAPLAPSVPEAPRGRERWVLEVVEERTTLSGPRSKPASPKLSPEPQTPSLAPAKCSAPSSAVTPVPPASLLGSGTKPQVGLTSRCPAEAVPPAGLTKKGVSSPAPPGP
T6 sequence (Q8NG66 whole entry): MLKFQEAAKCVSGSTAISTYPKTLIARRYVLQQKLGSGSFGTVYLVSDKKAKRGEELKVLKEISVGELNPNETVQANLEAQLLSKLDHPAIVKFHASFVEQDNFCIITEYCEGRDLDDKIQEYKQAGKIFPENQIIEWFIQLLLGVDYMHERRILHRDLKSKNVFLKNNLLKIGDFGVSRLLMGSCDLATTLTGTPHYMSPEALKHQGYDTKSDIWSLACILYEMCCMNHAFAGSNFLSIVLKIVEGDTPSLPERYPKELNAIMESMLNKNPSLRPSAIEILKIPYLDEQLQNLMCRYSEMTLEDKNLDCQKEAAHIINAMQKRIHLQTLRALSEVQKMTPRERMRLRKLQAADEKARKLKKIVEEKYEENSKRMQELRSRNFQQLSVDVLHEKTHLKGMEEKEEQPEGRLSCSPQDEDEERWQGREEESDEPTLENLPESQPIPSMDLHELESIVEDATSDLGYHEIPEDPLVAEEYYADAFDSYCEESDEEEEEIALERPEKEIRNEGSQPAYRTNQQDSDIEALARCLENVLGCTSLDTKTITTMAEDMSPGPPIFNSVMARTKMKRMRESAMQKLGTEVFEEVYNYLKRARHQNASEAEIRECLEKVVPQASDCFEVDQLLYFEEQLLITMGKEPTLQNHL
T5 sequence (Q9BQI3 whole entry): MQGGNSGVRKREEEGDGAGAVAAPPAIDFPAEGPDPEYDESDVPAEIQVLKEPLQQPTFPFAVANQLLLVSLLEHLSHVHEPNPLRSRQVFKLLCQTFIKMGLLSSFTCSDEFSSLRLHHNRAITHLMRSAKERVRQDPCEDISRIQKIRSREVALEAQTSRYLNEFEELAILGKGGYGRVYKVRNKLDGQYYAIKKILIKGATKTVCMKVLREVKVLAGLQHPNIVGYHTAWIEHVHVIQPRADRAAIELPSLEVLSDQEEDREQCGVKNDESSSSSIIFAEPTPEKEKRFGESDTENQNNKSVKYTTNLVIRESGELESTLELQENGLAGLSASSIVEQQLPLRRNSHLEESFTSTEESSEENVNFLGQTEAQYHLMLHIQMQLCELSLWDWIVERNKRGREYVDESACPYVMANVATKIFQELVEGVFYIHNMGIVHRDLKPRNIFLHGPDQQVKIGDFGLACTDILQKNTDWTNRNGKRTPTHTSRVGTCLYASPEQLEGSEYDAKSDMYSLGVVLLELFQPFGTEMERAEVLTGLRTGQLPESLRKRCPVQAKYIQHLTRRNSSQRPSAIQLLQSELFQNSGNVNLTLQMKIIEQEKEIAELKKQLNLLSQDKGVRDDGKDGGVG
T10 sequence (P9WI81 whole entry): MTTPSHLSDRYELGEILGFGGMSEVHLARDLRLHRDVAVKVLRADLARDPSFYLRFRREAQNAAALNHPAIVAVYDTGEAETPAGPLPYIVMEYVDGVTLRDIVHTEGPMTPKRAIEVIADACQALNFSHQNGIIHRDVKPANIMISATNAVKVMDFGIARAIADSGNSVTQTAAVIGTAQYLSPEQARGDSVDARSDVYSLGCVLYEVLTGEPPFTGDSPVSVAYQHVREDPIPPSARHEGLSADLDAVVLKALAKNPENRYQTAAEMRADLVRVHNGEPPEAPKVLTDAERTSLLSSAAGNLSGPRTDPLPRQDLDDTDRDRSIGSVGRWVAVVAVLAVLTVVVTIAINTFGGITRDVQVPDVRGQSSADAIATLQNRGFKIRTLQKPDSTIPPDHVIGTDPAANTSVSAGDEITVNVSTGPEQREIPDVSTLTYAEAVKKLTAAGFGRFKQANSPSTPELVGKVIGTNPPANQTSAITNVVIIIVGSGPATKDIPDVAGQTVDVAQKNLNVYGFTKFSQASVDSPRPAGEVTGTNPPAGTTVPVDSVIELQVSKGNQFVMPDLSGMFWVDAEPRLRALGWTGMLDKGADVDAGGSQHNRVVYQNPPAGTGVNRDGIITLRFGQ
T11 sequence (O96017 whole entry): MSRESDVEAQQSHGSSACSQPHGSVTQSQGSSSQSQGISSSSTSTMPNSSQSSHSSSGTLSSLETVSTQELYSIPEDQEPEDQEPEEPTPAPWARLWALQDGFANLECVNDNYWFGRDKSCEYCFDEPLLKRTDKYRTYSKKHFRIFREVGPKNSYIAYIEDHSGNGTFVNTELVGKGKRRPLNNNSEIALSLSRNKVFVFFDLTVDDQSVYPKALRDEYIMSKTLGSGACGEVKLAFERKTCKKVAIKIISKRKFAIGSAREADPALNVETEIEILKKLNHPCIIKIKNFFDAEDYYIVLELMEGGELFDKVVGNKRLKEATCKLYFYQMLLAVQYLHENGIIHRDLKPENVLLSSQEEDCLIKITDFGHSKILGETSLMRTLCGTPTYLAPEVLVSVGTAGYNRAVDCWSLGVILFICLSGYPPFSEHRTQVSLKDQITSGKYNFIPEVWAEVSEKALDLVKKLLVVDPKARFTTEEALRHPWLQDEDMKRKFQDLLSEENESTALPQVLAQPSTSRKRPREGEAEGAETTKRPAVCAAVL
T17 sequence (Q9HAZ1 whole entry): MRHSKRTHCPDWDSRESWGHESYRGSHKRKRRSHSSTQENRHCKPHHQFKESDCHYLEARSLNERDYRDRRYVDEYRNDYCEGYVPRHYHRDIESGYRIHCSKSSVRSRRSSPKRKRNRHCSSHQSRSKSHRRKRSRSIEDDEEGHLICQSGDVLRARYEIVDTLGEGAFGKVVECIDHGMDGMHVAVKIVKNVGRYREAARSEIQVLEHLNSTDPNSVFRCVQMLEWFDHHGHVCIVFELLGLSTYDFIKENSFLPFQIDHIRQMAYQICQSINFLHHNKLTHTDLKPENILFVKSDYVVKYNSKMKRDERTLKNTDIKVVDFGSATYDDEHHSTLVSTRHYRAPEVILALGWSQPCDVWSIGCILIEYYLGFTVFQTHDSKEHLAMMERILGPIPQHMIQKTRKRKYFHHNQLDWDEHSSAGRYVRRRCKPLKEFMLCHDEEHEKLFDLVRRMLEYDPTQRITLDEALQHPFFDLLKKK
T14 sequence (P78356 whole entry): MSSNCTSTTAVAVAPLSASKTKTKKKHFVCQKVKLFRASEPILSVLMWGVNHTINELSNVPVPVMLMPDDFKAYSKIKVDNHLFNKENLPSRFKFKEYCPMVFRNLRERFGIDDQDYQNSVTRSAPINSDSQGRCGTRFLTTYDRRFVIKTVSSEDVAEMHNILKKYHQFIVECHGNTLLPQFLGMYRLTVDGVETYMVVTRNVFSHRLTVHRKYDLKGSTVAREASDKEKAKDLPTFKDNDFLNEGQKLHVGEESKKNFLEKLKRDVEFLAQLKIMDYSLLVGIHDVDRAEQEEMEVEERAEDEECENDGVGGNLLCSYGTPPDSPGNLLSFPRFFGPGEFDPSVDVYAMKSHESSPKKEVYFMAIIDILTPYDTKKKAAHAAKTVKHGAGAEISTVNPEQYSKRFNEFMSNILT

On to `O=C(Nc1ccc(Oc2ncnc3[nH]ncc23)cc1)Nc1ccc(Cl)c(C(F)(F)F)c1` [Compound 1, 1-(4-(1H-pyrazolo[3,4-d]pyrimidin-4-yloxy)phenyl)-3-(4-chloro-3-(trifluoromethyl)phenyl)urea], for which the IC50 in the experiment on Jurkat is 8.72 µM; in the experiment with Karpas-299 it was above 10 µM; with HeLa, above 10 µM; in the experiment with MCF-7 it was above 10 µM; with BEL7402 it was above 10 µM; in the experiment with MV4-11 it was 4 nM. The IC50 in the experiment on Raji, in the experiment with SMMC7721, with U266, in the experiment on A549 and in the experiment on HL-60 was above 10 µM throughout. In experiment [1] (STF3a cells), the “attenuation of Wnt/β-catenin signaling” value is reported as “very weak activity”.
Consider `CC(C)(C)c1cc(NC(=O)Nc2ccc(Oc3ncnc4[nH]ncc34)c(F)c2)no1` [SKLB-677, 1-(4-(1H-pyrazolo[3,4-d]pyrimidin-4-yloxy)-3-fluorophenyl)-3-(5-tert-butylisoxazol-3-yl)urea], for which the remaining binding at 10 µM on CDC2L1 amounted to 66%; at MAP3K15, 100%; at SRMS, 57%; on HIPK2 it was 4.4%; at EIF2AK1, 96%; on NEK11, 96%. The remaining binding at 10 µM is 97% at STK36; 2.3% on MINK; 100% on PRKG2; 100% at PKNB(M.tuberculosis); 32% at CHEK2; 100% at MAST1. Also, the remaining binding at 10 µM was determined as 28% at MAP4K2; 98% at PIP5K2B; 5.2% on EPHB2; 100% at PIK3CG; 9.6% on CLK4. The IC50 in the experiment with Jurkat is 4.3 µM; in the experiment with H358 it was 8 µM; in experiment [1] (STF3A, read-out: IC50, inhibition of the Wnt/β-catenin signaling), below 0.1 µM; in the experiment with Karpas-299, 7 µM; in the experiment with HeLa it was 9.45 µM; in the experiment on MCF-7, above 10 µM. The IC50 in the experiment with BEL7402 is above 10 µM; with MV4-11, 0.079 nM; in the experiment with MV4-11 (read-out: Cell viability IC50), 0.079 nM; in the experiment with Raji it was 7.9 µM; in the experiment on SMMC7721, above 10 µM; in the experiment with U266, above 10 µM. Further, the IC50 was found to be 6.4 µM in the experiment with A549 and 8.9 µM with HL-60. The molecule also had a Kd on FLT3-D835H of 0.00074 µM.

One may read the Kd as the constant that tells how readily two partners part at equilibrium. The low end stands for higher affinity, the high end for lower affinity.
